Reference: patent US11033538B2, “Dosing regimens for the treatment of lysosomal storage diseases using pharmacological chaperones” (Amicus Therapeutics, Inc., priority 2007, dated 2021)
Several values for one entry are separate records, joined by “and”; a condition that tells them apart may be missing. Equal values may be shown once. Entries after “also recorded” stand apart in the source; their conditions may differ. Read-outs that look alike come from different tables or passages of the source.

Experiments:
α-GAL [1] = format: in vivo, human; conditions: first eleven patients treated at least 12 weeks; two regimens
Procedure: (§1) Eight patients in the study received an ascending dose of 25, 100, and then 250 mg b.i.d. over 6 weeks, followed by 50 mg/day for the remainder of the study.
For purposes of calculating the percentage of normal in the table, the level of α-GAL that is normal was derived by using the average of the levels of α-GAL in white blood cells of 15 healthy volunteers from the multiple-dose Phase I study.

α-GAL [2] = molecular target: T1, α-GAL (Homo sapiens, UniProt P06280, R301Q); assay: Example 8, α-GAL expression in tissues of transgenic mice expressing R301Q; format: in vivo; conditions: 100 mg/kg ad libitum, four weeks
T1 construct: from tissue; host or cells: skin, heart, kidney of transgenic mice
T1 sequence (P06280 32-429 R301Q): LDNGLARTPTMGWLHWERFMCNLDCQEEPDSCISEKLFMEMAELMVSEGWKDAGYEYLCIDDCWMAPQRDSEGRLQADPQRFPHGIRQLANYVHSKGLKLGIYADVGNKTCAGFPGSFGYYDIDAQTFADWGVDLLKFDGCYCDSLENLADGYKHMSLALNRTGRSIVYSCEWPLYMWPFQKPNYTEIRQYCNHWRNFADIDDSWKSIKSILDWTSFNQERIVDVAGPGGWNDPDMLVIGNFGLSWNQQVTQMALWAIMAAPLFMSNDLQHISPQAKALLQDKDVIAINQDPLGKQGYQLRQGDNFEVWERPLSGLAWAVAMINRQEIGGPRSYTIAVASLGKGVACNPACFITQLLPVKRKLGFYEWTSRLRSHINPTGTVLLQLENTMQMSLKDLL

GL-3 [3] = assay: Example 5, skin GL-3 levels by light and electron microscopy; format: in vivo, human; conditions: 10 patients, baseline and after treatment
Procedure: as §1
Skin GL-3 levels at baseline and after treatment as assessed by light and electron microscopy are available for 10 patients.

[4] = Phase Ib twice-daily dose study of DGJ in healthy volunteers, plasma and urine pharmacokinetics; format: in vivo, human
Procedure: Subjects were housed in the treatment facility from 14 hours prior to dosing until 24 hours after dosing. Meals were controlled by schedule and subjects remained abulatory for 4 hours post drug administration
Blood samples (10 mL each) were collected in blood collection tubes containing EDTA before dosing and at the following times thereafter: 0.25, 0.5, 0.75, 1, 1.5, 2, 3, 4, 5, 6, 7, 8, 9, 10, 11 and 12 hours. Blood samples were cooled in an ice bath and centrifuged under refrigeration as soon as possible. Plasma samples were divided into two aliquots and stored at […]. pending assay. At the end of the study, all samples were transferred to MDS Pharma Services Analytical Laboratories (Lincoln) for analysis.

hR301Q GLA [5] = molecular target: T2, hR301Q GLA (Homo sapiens, UniProt P06280, R301Q); assay: Example 12, GLA activity and protein in tissues of hR301Q GLA Tg/KO mice; format: in vivo; conditions: 4 weeks
T2 construct: from tissue; host or cells: skin, heart, kidney lysates of hR301Q GLA Tg/KO mice
T2 sequence (P06280 32-429 R301Q): T1 sequence (P06280 32-429 R301Q)
Procedure: Tissue lysates from skin, heart, and kidney were prepared and tested for GLA activity (using 4-MUG as substrate, expressed in nmol/mg protein/hr), GLA protein (using immunoblotting of […] tissue lysate with anti-human GLA antibody) and GL-3 levels (using LC-MS/MS, expressed in mg/g of tissue weight). […] Each bar represents the mean±SEM of n=7-8 mice/group. Each lane in the Western blots represents one mouse from each group.

[6] = test system: patients with Fabry disease; assay: Example 15, echocardiography; format: in vivo, human; conditions: for decrease in interventricular septal wall thickness from baseline: up to 24 months
Procedure: Left ventricular mass index, left posterior wall thickness, diastolic, interventricular septum thickness, diastolic and other parameters were assessed through blinded, centralized evaluation. The baseline visit of extension study AT1001-041/NCT01458119 was used as the last assessment.

hR301Q GLA [7] = molecular target: T2, hR301Q GLA; assay: Example 13, half-life of elevated hR301Q GLA after DGJ withdrawal; format: in vivo, mice; conditions: after 4 weeks 100 mg/kg/day DGJ, washout; exponential decay curves
lyso-Gb3 = assay: Example 15, plasma lyso-Gb3; format: in vivo, human
Procedure: (§2) Plasma lyso-Gb3 and 24-hour urine GL-3 were analyzed by liquid chromatography-mass-spectroscopy using a novel stable isotope-labeled internal standard, 13C6-lyso-Gb3 (lower-limit-of-quantification: 0.200 ng/mL, 0.254 nmol/L).

GL-3 [8] = assay: Example 15, podocyte GL-3 by electron microscopy stereology; format: in vivo, human; conditions: after 6 months of DGJ
Source text: This decrease correlated with % reduction in podocyte GL-3 volume (r=0.79, p=0.02). […] The sensitive quantitative method used can assess treatment efficacy for this important cell type over a relatively short period of time. This method is also more sensitive than the methods described above in the kidney analysis of Example 5 (as shown in FIG. 14), as well as the methods earlier in this example relating to qualitative assessment of podocyte GL-3.

GL-3 [9] = assay: Example 15, 24-hour urine GL-3; format: in vivo, human
Procedure: as §2

[10] = human, plasma, oral, 50 mg, 50 mg bid, Day 1
[11] = human, plasma, oral, 50 mg, 50 mg bid, Day 7
[12] = human, plasma, oral, 150 mg, 150 mg bid, Day 1
[13] = human, plasma, po, 150 mg, oral 150 mg DGJ hydrochloride

OC[C@H]1NC[C@H](O)[C@@H](O)[C@H]1O [DGJ, (2R,3S,4R,5S)-2-(hydroxymethyl) piperdine-3,4,5-triol]
patients with an increase in α-GAL activity (α-GAL [1]): 10 of the 11
α-GAL expression in the skin, heart and kidney (α-GAL [2]): increased
skin GL-3 levels (GL-3 [3]): Seven patients had skin GL-3 levels that were normal or near normal both before and after treatment; also recorded: Results for the three other patients were difficult to interpret
12 h cumulative renal excretion ([4]; 50 mg bid, Day 1): 16% and 16 ± 6%
12 h cumulative renal excretion ([4]; 50 mg bid, Day 7): 48% and 48 ± 7%
Cmin ([4]; 50 mg bid, Day 7): 0.4 ± 0.03 µM
dose dependence of Cmax ([4]; 50 mg to 150 mg): increased in a dose-proportional manner
12 h cumulative renal excretion ([4]; 150 mg bid, Day 1): 42% and 42 ± 7%
12 h cumulative renal excretion ([4]; 150 mg bid, Day 7): 60% and 60 ± 5%
Cmax ([4]; 150 mg bid, Day 7): 10.8 ± 1.4 µM
Cmin ([4]; 150 mg bid, Day 7): 1.2 ± 0.1 µM
time of peak concentrations, on average ([4]; all dose levels): approximately 3 hours
oral availability ([4]; healthy male volunteers): orally available
Cmax [4, 10]: 2.3 ± 0.3 µM
Tmax [4, 10]: 2.9 ± 0.4 h
Cmax [4, 11]: 3.9 ± 0.5 µM
Tmax [4, 11]: 2.5 ± 0.4 h
Cmax [4, 12]: 11.3 ± 1.5 µM
Tmax [4, 12]: 3.1 ± 0.4 h
Tmax ([4]; human, plasma, oral, 150 mg, 150 mg bid, Day 7): 2.9 ± 0.4 h
half-life ([4]; human, plasma, oral, 50 mg bid, Day 1, read-out: t½ (converted)): 2.5 h
half-life ([4]; human, plasma, oral, 150 mg bid, Day 1, read-out: t½ (converted)): 2.4 h
Cmax [4, 13]: 9 µM
Tmax [4, 13]: 3 h
half-life ([4]; human, plasma, po, 150 mg, read-out: Half-life (exponential decay) (converted)): 3 h
GLA activity in skin, heart, kidney (hR301Q GLA [5]; 3, 10, 30, 100 or 300 mg/kg/day, p<0.05 vs. untreated): significant and dose-dependent increase in GLA activity
GLA protein (immunoblotting) (hR301Q GLA [5]; 3-300 mg/kg/day): significant and dose-dependent increase
LVMi change from baseline (±SD) ([6]; 30/36 months of treatment, ±21.5): −7.8 g/m^2
LVMi change from baseline ([6]; 30/36 months, patients with baseline LVH (n=4)): −30.0±17.5 g/m^2
left ventricular posterior wall thickness ([6]; in vivo): stable for up to 24 months
decrease in interventricular septal wall thickness from baseline [6]: 5.2%
decrease in interventricular septal wall thickness from baseline ([6]; ±0.051, baseline 1.17 cm±0.057): 0.061 cm
half-life of elevated tissue hR301Q GLA levels (hR301Q GLA [7]): 48 to 60 h
Mean plasma lyso-Gb3 (lyso-Gb3; after 6 months of DGJ, baseline 118±48, N=8 males, p=0.0004): 75 ± 42 nM
plasma lyso-Gb3 levels (lyso-Gb3; six months of DGJ, mITT-suitable, p=0.0033): significant reduction in plasma lyso-Gb3 levels compared to placebo
plasma lyso-Gb3 (lyso-Gb3; switching from placebo to DGJ between 6 and 12 months, p<0.0001): significant reduction in plasma lyso-Gb3
mean±SD V(Inc/PC), GL-3 inclusion volume per podocyte (GL-3 [8]; baseline 2568±1408, N=8 males, p=0.0182): 1282±792 μm^3
mean podocyte volume (GL-3 [8]; baseline 6680±2835, p=0.004): 3525±2084 μm^3
mean change in 24-hour urine GL-3 substrate (±SEM) concentration (GL-3 [9]; baseline to month 6, suitable mutants, p=0.44 vs placebo): −361±169 ng/mg creatinine
24-hour urine GL-3 substrate (±SEM) concentration reached (GL-3 [9]; month 6, suitable mutants): 555±151 ng/mg creatinine
